What was measured:
ALPK1 = ALPK1 (Homo sapiens, UniProt Q96QP1); experiment: IL8 secretion in HEK293 cells (IL8 ELISA) as indicator of ALPK1 activation; conditions: for IL8 secretion in HEK293 cells: 4 hours
Protocol: We pre-mixed H1b-ADP with phosphatase inhibitor sodium orthovanadate (Na3VO4) before incubation with FBS.
In these experiments, serial dilutions of the compounds were added to the tissue culture media of HEK293 cells with (FIG. 27B, FIG. 28B, FIG. 29B) or without (FIG. 26, FIG. 27A, FIG. 28A, FIG. 29A) 10% FBS, as indicated in the figures. After 4 hours, the cell supernatant was collected and analyzed for IL8 concentration using IL8 ELISA (BD) as an indicator of ALPK1 activation.

CT26 cells = experiment: CT26 tumor xenograft model, tumor volume; type: in vivo, BALB/c mice; conditions: Example 18: 50 nmol, injections days 7, 9, 11
Protocol: We used a CT26 tumor xenograft model to test the anti-cancer activity of H1b-ADP. Tumor cells (2×10^5 per 100 uL CT26 cells) were inoculated subcutaneously into the right flank of BALB/c mice. At day 6, mice whose tumors had reached 3-5 mm in diameter were randomized and grouped into three groups (n=8 each group), control, HMP-1bP (580 ug), and H1b-ADP (1.2 ug). Injections were performed using a total volume of 20 uL at days 6, 8, 10, 12, and 14 post inoculation. Tumor volumes were calculated every 2 days from caliper measurements of tumor dimension using the formula (L×W^2)/2, where L is the longer measurement.
To test whether H1b-ADP could augment an anti-tumor response by a checkpoint inhibitor, we tested the effects of co-administration with an anti-PD1 antibody. Tumor cells (2×10^5 per 100 μL CT26 cells) were inoculated subcutaneously into the left and right flanks of BALB/c mice. At day 7, mice whose tumors had reached 5 mm in diameter were randomized and grouped (n=8 each group) into the following four groups: anti-PD1 antibody; rat IgG; H1b-ADP+rat IgG; H1b-ADP+anti-PD1 antibody. We utilized RMP1-14 as the anti-PD1 antibody (10 mg/kg) and a rat IgG 2a (2A3) as the control IgG. Each of the anti-PD-1 antibody and the control IgG was administered intraperitoneally in a 200 μL volume on days 6, 10, 12, and 17 post-inoculation. H1b-ADP (6.2 μg) was intratumorally injected in a 20 μL volume at day 6, 8, 10, 12, and 15. Tumor volumes were calculated every 2 days from caliper measurements of tumor dimensions using the formula (L×W^2)/2, where L is the longer measurement. The results are shown in FIG. 13A for injected tumors and FIG. 13B for distant tumors. […]
The experiment was carried out as combo experiments of anti-PD1 except for the following variations. At day 6, mice whose tumors had reached 5 mm in diameter were randomized and grouped into the following four groups: c-di-AM(PS)2; PBS; H1b-ADP; H1b-ADP+c-di-AM(PS)2. We utilized c-di-AM(PS)2 as the STING agonist. Each of the c-di-AM(PS)2 (1 μg) and H1b-ADP (6.2 μg) was administered intratumorally in a 20 μL volume on days 6, 7, and 9 post-inoculation.
The experiment was carried out as combo experiments of anti-PD-1 except for the following variations. At day 6, mice whose tumors had reached 5 mm in diameter were randomized and grouped into the following four groups: anti-CD4 antibody (GK1.5 clone, BE0003-1, BioXcell); rat IgG; H1b-ADP+rat IgG; H1b-ADP+anti-CD4 antibody. Each of the anti-CD4 antibody (200 μg) and the control IgG (200 μg) was administered intraperitoneally in a 200 μL volume on days 3, 4, 8 post-inoculation. H1b-ADP (6.2 μg) was administered intratumorally in a 20 μL volume on days 6, 8, 10, 12, 14 post-inoculation.
The experiment was carried out as combo experiments of anti-PD-1 except for the following variations. At day 6, mice whose tumors had reached 5 mm in diameter were randomized and grouped into the following four groups: Resquimod; PBS; H1b-ADP; H1b-ADP+Resquimod. Resquimod (10 μg) and H1b-ADP (6.2 μg) were administered intratumorally in a 20 μL volume on days 6, 8, 11 post-inoculation.
We used a CT26 tumor xenograft model to test the anti-cancer activity of H1b-ADP derivative Compounds 1 and 2. Tumor cells (2×10^5 per 100 uL CT26 cells) were inoculated subcutaneously into the right flank of BALB/c mice. At day 7, mice whose tumors had reached 3-5 mm in diameter were randomized and grouped into three groups (n=9 each group), control, Compound 1 (50 nmol), and Compound 2 (50 nmol). Injections were performed using a total volume of 20 uL at days 7, 9, and 11 post inoculation. Tumor volumes were calculated every 2 days from caliper measurements of tumor dimension using the formula (L×W^2)/2, where L is the longer measurement.

ALPK1, sequence (Q96QP1 whole entry): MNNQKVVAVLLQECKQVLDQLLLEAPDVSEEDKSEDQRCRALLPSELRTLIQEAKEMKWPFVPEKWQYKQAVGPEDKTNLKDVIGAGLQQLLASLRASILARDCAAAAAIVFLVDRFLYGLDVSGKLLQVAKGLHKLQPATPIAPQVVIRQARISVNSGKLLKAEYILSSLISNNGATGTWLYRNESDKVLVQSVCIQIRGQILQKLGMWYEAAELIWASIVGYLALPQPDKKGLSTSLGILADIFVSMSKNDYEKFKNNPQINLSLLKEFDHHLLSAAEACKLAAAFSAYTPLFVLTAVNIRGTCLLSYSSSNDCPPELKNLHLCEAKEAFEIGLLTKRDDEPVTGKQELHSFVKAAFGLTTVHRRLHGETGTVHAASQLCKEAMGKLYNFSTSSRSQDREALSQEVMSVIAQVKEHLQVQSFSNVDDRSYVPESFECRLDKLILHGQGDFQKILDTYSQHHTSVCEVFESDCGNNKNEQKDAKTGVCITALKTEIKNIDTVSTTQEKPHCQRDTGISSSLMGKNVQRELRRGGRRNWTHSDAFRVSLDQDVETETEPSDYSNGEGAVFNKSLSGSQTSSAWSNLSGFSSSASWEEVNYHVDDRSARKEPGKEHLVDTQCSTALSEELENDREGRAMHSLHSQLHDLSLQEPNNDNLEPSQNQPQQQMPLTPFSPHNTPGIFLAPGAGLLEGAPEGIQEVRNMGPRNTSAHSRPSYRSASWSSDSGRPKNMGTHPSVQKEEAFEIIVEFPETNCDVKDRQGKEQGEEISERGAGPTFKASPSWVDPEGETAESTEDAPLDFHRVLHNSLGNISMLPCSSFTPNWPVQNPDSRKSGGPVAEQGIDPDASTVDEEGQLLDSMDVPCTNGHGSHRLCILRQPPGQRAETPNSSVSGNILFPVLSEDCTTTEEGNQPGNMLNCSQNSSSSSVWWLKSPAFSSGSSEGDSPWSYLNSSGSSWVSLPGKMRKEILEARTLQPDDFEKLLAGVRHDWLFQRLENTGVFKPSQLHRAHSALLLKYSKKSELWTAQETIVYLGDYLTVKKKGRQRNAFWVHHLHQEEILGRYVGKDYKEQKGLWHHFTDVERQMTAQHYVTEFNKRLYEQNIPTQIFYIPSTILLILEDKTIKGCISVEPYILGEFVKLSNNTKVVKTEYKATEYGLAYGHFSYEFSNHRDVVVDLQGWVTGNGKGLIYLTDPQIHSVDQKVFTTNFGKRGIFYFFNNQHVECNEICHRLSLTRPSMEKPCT

For CC(=O)OC[C@H](OC(C)=O)[C@H]1O[C@@H](OP(=O)(O)OP(=O)(O)OC[C@H]2O[C@@H](n3cnc4c(N)ncnc43)[C@H](O)[C@@H]2O)[C@@H](OC(C)=O)[C@@H](OC(C)=O)[C@@H]1OC(C)=O [Compound 21, (2S,3S,4S,5R,6R)-2-(((((((2R,3S,4R,5R)-5-(6-amino-9H-purin-9-yl)-3,4-dihydroxytetrahydrofuran-2-yl)methoxy)(hydroxy)phosphoryl)oxy)(hydroxy)phosphoryl)oxy)-6-((S)-1,2-diacetoxyethyl)tetrahydro-2H-pyran-3,4,5-triyl triacetate], the “IL8 secretion in HEK293 cells” value (ALPK1; with 10% FBS) was “increased IL8 secretion” and the “IL8 secretion in HEK293 cells” value (ALPK1; without FBS) was “increased IL8 secretion”.

With CC(=O)OC[C@@H](OC(C)=O)[C@H]1O[C@@H](OP(=O)(O)OP(=O)(O)OC[C@H]2O[C@@H](n3cnc4c(N)ncnc43)[C@H](O)[C@H]2F)[C@@H](OC(C)=O)[C@@H](OC(C)=O)[C@@H]1OC(C)=O [Compound 17, (2S,3S,4S,5R,6R)-2-(((((((2R,3R,4S,5R)-5-(6-amino-9H-purin-9-yl)-3-fluoro-4-hydroxytetrahydrofuran-2-yl)methoxy)(hydroxy)phosphoryl)oxy)(hydroxy)phosphoryl)oxy)-6-((R)-1,2-diacetoxyethyl)tetrahydro-2H-pyran-3,4,5-triyl triacetate] the “IL8 secretion in HEK293 cells” value (ALPK1; with 10% FBS) was “increased IL8 secretion” and the “IL8 secretion in HEK293 cells” value (ALPK1; without FBS) was “increased IL8 secretion”.

With CO[C@@H]1[C@H](OC)[C@@H](COP(=O)(O)OP(=O)(O)O[C@@H]2O[C@H]([C@@H](COC(C)=O)OC(C)=O)[C@@H](OC(C)=O)[C@H](OC(C)=O)[C@@H]2OC(C)=O)O[C@H]1n1cnc2c(N)ncnc21 [Compound 13, (2S,3S,4S,5R,6R)-2-(((((((2R,3R,4R,5R)-5-(6-amino-9H-purin-9-yl)-3,4-dimethoxytetrahydrofuran-2-yl)methoxy)(hydroxy)phosphoryl)oxy)(hydroxy)phosphoryl)oxy)-6-((R)-1,2-diacetoxyethyl)tetrahydro-2H-pyran-3,4,5-triyl triacetate] the “IL8 secretion in HEK293 cells” value (ALPK1; with 10% FBS) was “increased IL8 secretion” and the “IL8 secretion in HEK293 cells” value (ALPK1; without FBS) was “increased IL8 secretion”.

With CC(=O)OC[C@@H](OC(C)=O)[C@H]1O[C@@H](OP(=O)(O)OP(=O)(O)OC[C@@]2(F)O[C@@H](n3cnc4c(N)ncnc43)[C@H](O)[C@@H]2O)[C@@H](OC(C)=O)[C@@H](OC(C)=O)[C@@H]1OC(C)=O [Compound 20, (2S,3S,4S,5R,6R)-2-(((((((2S,3S,4R,5R)-5-(6-amino-9H-purin-9-yl)-2-fluoro-3,4-dihydroxytetrahydrofuran-2-yl)methoxy)(hydroxy)phosphoryl)oxy)(hydroxy)phosphoryl)oxy)-6-((R)-1,2-diacetoxyethyl)tetrahydro-2H-pyran-3,4,5-triyl triacetate] the “IL8 secretion in HEK293 cells” value (ALPK1; with 10% FBS) was “activate IL8 secretion” and the “IL8 secretion in HEK293 cells” value (ALPK1; without FBS) was “activate IL8 secretion”.

With Nc1ncnc2c1ncn2[C@@H]1O[C@H](COP(O)(=S)OP(=O)(O)O[C@@H]2OC([C@H](O)CO)[C@@H](O)C(O)C2O)C(O)C1O (stereo partly shown) [Compound 16] the “IL8 secretion in HEK293 cells” value (ALPK1; with 10% FBS) was “increased IL8 secretion” and the “IL8 secretion in HEK293 cells” value (ALPK1; without FBS) was “increased IL8 secretion”.

With Nc1ncnc2c1ncn2[C@@H]1O[C@H](COP(=O)(O)OP(=O)(O)O[C@@H]2OC([C@@H](O)CO)[C@@H](O)C(O)C2O)C(O)C1O (stereo partly drawn) [Compound 22, Adenosine-5′-(L-glycero-β-D-mannoheptopyranosyl) diphosphate] the “IL8 secretion in HEK293 cells” value (ALPK1; with 10% FBS) was “increased IL8 secretion” and the “IL8 secretion in HEK293 cells” value (ALPK1; without FBS) was “increased IL8 secretion”.

CC(=O)OC[C@H]1O[C@@H](OP(=O)(O)OP(=O)(O)OC[C@H]2O[C@@H](n3cnc4c(N)ncnc43)[C@H](O)[C@@H]2O)[C@@H](OC(C)=O)[C@@H](OC(C)=O)[C@@H]1OC(C)=O [Compound 5, (2R,3R,4S,5S,6S)-2-(acetoxymethyl)-6-(((((((2R,3S,4R,5R)-5-(6-amino-9H-purin-9-yl)-3,4-dihydroxytetrahydrofuran-2-yl)methoxy)(hydroxy)phosphoryl)oxy)(hydroxy)phosphoryl)oxy)tetrahydro-2H-pyran-3,4,5-triyl triacetate] was tested, and the “IL8 secretion in HEK293 cells” value (ALPK1; with 10% FBS) was “increased IL8 secretion” and the “IL8 secretion in HEK293 cells” value (ALPK1; without FBS) was “increased IL8 secretion”.

In the case of COC1C(OC)[C@@H](COP(=O)(O)OP(=O)(O)O[C@@H]2OC([C@H](O)CO)[C@@H](O)C(O)C2O)O[C@H]1n1cnc2c(N)ncnc21 (stereo partly drawn) [Compound 14, Adenosine-2′3′-dimethoxy-5′-(D-glycero-β-D-mannoheptopyranosyl) diphosphate], the “IL8 secretion in HEK293 cells” value (ALPK1; with 10% FBS) is reported as “increased IL8 secretion” and the “IL8 secretion in HEK293 cells” value (ALPK1; without FBS) is reported as “increased IL8 secretion”.

In the case of CC(=O)OC[C@H](F)[C@H]1O[C@@H](OP(=O)(O)OP(=O)(O)OC[C@H]2O[C@@H](n3cnc4c(N)ncnc43)[C@H](O)[C@@H]2O)[C@@H](OC(C)=O)[C@@H](OC(C)=O)[C@@H]1OC(C)=O [Compound 3, (2S,3S,4S,5S,6S)-2-((S)-2-acetoxy-1-fluoroethyl)-6-(((((((2R,3S,4R,5R)-5-(6-amino-9H-purin-9-yl)-3,4-dihydroxytetrahydrofuran-2-yl)methoxy)(hydroxy)phosphoryl)oxy)(hydroxy)phosphoryl)oxy)tetrahydro-2H-pyran-3,4,5-triyl triacetate], the “IL8 secretion in HEK293 cells” value (ALPK1; with 10% FBS) is reported as “activate IL8 secretion” and the “IL8 secretion in HEK293 cells” value (ALPK1; without FBS) is reported as “activate IL8 secretion”.

Nc1ncnc2c1ncn2[C@@H]1O[C@H](COP(=O)(O)OP(=O)(O)O[C@@H]2OC([C@H](O)CO)[C@@H](O)C(O)C2O)C(F)C1O (stereo partly drawn) [Compound 2, Adenosine-3′-fluoro-5′-(D-glycero-β-D-mannoheptopyranosyl) diphosphate] was tested, and the tumor growth (CT26 cells) was “reduced tumor growth” and the “IL8 secretion in HEK293 cells” value (ALPK1; without FBS) was “activate IL8 secretion”.

With CC(=O)OC[C@@H](OC(C)=O)[C@H]1O[C@@H](OP(=O)(O)OP(=O)(O)OC[C@@]2(F)O[C@@H](n3cnc4c(N)ncnc43)[C@@H]3OC(C)(C)O[C@@H]32)[C@@H](OC(C)=O)[C@@H](OC(C)=O)[C@@H]1OC(C)=O [Compound 19, (2S,3S,4S,5R,6R)-2-(((((((3aS,4S,6R,6aR)-6-(6-amino-9H-purin-9-yl)-4-fluoro-2,2-dimethyltetrahydrofuro[3,4-d][1,3]dioxol-4-yl)methoxy)(hydroxy)phosphoryl)oxy)(hydroxy)phosphoryl)oxy)-6-((R)-1,2-diacetoxyethyl)tetrahydro-2H-pyran-3,4,5-triyl triacetate] the “IL8 secretion in HEK293 cells” value (ALPK1; with 10% FBS) was “activate IL8 secretion” and the “IL8 secretion in HEK293 cells” value (ALPK1; without FBS) was “activate IL8 secretion”.

CC(=O)OC[C@@H](OC(C)=O)[C@H]1O[C@@H](OP(=O)(O)OP(O)(=S)OC[C@H]2O[C@@H](n3cnc4c(N)ncnc43)[C@H](O)[C@@H]2O)[C@@H](OC(C)=O)[C@@H](OC(C)=O)[C@@H]1OC(C)=O (stereo partly drawn) [Compound 15, (2S,3S,4S,5R,6R)-2-(((((((2R,3S,4R,5R)-5-(6-amino-9H-purin-9-yl)-3,4-dihydroxytetrahydrofuran-2-yl)methoxy)(hydroxy)phosphorothioyl)oxy)(hydroxy)phosphoryl)oxy)-6-((R)-1,2-diacetoxyethyl)tetrahydro-2H-pyran-3,4,5-triyl triacetate] was tested, and the “resistance to serum degradation” value (ALPK1; compare without FBS and with 10% FBS (FIG. 27A and FIG. 27B)) was “unexpected resistance to serum degradation”, the “IL8 secretion in HEK293 cells” value (ALPK1; with 10% FBS) was “activate IL8 secretion” and the “IL8 secretion in HEK293 cells” value (ALPK1; without FBS) was “activate IL8 secretion”.
